Laboratory results reported in US20070128217A1 (priority 2003, published 2007).

Assays:
[1] = test system: antibodies in sera from SARS patients (sera 1a, 1b, 2, 6, 37, 62, London, SARS-yellow, SARS-green); type: binding, human; parameters: Binding of serum 6 to linear peptides of protein X1 of SARS-CoV Urbani / Binding of serum 37 to linear peptides of protein X1 of SARS-CoV Urbani / Binding of serum 6 to looped/cyclic peptide (PEPSCAN-ELISA) / Binding of serum 37 to looped/cyclic peptide (PEPSCAN-ELISA) / Binding of serum 37 to looped/cyclic peptides of protein X1 of SARS-CoV Urbani / Binding of serum 6 to linear peptides of protein X2 / Binding of serum 37 to linear peptides of protein X2 / Binding of serum 37 to looped/cyclic peptides of protein X2 of SARS-CoV Urbani / Binding of serum 6 to linear peptides of protein M of SARS-CoV Urbani / Binding of serum 37 to linear peptides of protein M of SARS-CoV Urbani / Binding of serum 6 to looped/cyclic peptides of protein M of SARS-CoV Urbani / Binding of serum 37 to looped/cyclic peptides of protein M of SARS-CoV Urbani / Binding of serum 6 to linear peptides of protein X3 of SARS-CoV Urbani / Binding of serum 37 to linear peptides of protein X3 of SARS-CoV Urbani / Binding of serum 37 to looped/cyclic peptides of protein X3 of SARS-CoV Urbani / Binding of serum 6 to linear peptides of protein X4 of SARS-CoV Urbani / Binding of serum 37 to linear peptides of protein X4 of SARS-CoV Urbani / Binding of serum 37 to looped/cyclic peptides of protein X4 of SARS-CoV Urbani / Binding of serum 6 to linear peptides of protein X5 of SARS-CoV Urbani / Binding of serum 37 to linear peptides of protein X5 of SARS-CoV Urbani / Binding of serum 37 to looped/cyclic peptides of protein X5 of SARS-CoV Urbani / Binding of serum 6 to linear peptides of protein N of SARS-CoV Urbani / Binding of serum 37 to linear peptides of protein N of SARS-CoV Urbani / Binding of serum 6 to linear peptide (PEPSCAN-ELISA) / Binding of serum 1a to looped/cyclic peptides of protein N of SARS-CoV Urbani / Binding of serum 1b to looped/cyclic peptides of protein N of SARS-CoV Urbani / Binding of serum 2 to looped/cyclic peptides of protein N of SARS-CoV Urbani / Binding of serum 6 to looped/cyclic peptides of protein N of SARS-CoV Urbani / Binding of serum 37 to looped/cyclic peptides of protein N of SARS-CoV Urbani / Binding of serum 62 to looped/cyclic peptides of protein N of SARS-CoV Urbani / Binding of serum London to looped/cyclic peptides of protein N of SARS-CoV Urbani / Binding of serum SARS-green to looped/cyclic peptides of protein N of SARS-CoV Urbani: unit not given here
[2] = test system: control sera (pooled serum of ten healthy LUMC hospital workers; commercial negative donor pooled serum from the Dutch bloodbank); type: binding, human; parameters: Binding of Control serum LUMC to linear peptides / Binding of Control serum Blood-bank to linear peptides / Binding of Control serum LUMC to looped peptides / Binding of Control Serum Blood-Bank to Looped peptides / Binding of Control serum LUMC to linear peptides of the protein M of SARS-CoV Urbani / Binding of Control serum Blood-bank to linear peptides of the protein M of SARS-CoV Urbani / Binding of Control serum LUMC to looped peptides of the protein M of SARS-CoV Urbani / Binding of Control Serum Blood-Bank to Looped peptides of the protein M of SARS-CoV Urbani: unit not given here
[3] = test system: rabbit serum obtained by immunizing a rabbit with the SARS-CoV strain Frankfurt 1; type: binding; parameters: Binding of a rabbit serum to linear peptides / Binding of a rabbit serum to looped peptides / Rabbit serum linear peptides / Rabbit serum looped peptides / Binding of a rabbit serum to linear peptides of protein N of SARS-CoV Urbani (Rabbit serum linear peptides) / Binding of a rabbit serum to looped/cyclic peptides of protein N of SARS-CoV Urbani (Rabbit serum looped peptides): unit not given here
[4] = test system: recombinant human anti-SARS-CoV antibody 03-018; type: binding; parameters: Binding of antibody 03-018 to linear peptides of the N protein of SARS-CoV Urbani / Binding of antibody 03-018 to looped/cyclic peptides of the N protein of SARS-CoV Urbani: unit not given here

Sequence	Binding of serum 1a to linear peptides of protein N of SARS-CoV Urbani [1]	Binding of serum 1a to looped/cyclic peptides of protein N of SARS-CoV Urbani [1]	Binding of serum 1b to linear peptides of protein N of SARS-CoV Urbani [1]	Binding of serum 1b to looped/cyclic peptides of protein N of SARS-CoV Urbani [1]	Binding of serum 2 to linear peptides of protein N of SARS-CoV Urbani [1]	Binding of serum 2 to looped/cyclic peptides of protein N of SARS-CoV Urbani [1]	Binding of serum 6 to linear peptides of protein N of SARS-CoV Urbani [1]	Binding of serum 6 to looped/cyclic peptides of protein N of SARS-CoV Urbani [1]	Binding of serum 37 to linear peptides of protein N of SARS-CoV Urbani [1]	Binding of serum 37 to looped/cyclic peptides of protein N of SARS-CoV Urbani [1]	Binding of serum 62 to linear peptides of protein N of SARS-CoV Urbani [1]	Binding of serum 62 to looped/cyclic peptides of protein N of SARS-CoV Urbani [1]	Binding of serum London to linear peptides of protein N of SARS-CoV Urbani [1]	Binding of serum London to looped/cyclic peptides of protein N of SARS-CoV Urbani [1]	Binding of serum SARS-green to linear peptides of protein N of SARS-CoV Urbani [1]	Binding of serum SARS-green to looped/cyclic peptides of protein N of SARS-CoV Urbani [1]	Binding of serum SARS-yellow to linear peptides of protein N of SARS-CoV Urbani [1]	Binding of serum SARS-yellow to looped/cyclic peptides of protein N of SARS-CoV Urbani [1]	Binding of a rabbit serum to linear peptides of protein N of SARS-CoV Urbani (Rabbit serum linear peptides) [3]	Binding of a rabbit serum to looped/cyclic peptides of protein N of SARS-CoV Urbani (Rabbit serum looped peptides) [3]	further results
GTGPEASLPYGANKE	0.3	0.2	0.1	0.2	0.3	0.2	0.2	0.1	0.9	0.4	0.9	0.3	0.7	0.3	0.7	0.2	0.6	0.2	0.1	0.3	Binding of Control Serum Blood-Bank to Looped peptides [2]: 0.4; Binding of Control serum Blood-bank to linear peptides [2]: 0.7; Binding of Control serum LUMC to linear peptides [2]: 0.8; Binding of Control serum LUMC to looped peptides [2]: 0.4; Binding of antibody 03-018 to linear peptides of the N protein of SARS-CoV Urbani [4]: 0.1; Binding of antibody 03-018 to looped/cyclic peptides of the N protein of SARS-CoV Urbani [4]: 0.2
GTRNPNNNAATVLQL	0.3	0.4	0.1	0.3	0.3	0.7	0.2	0.4	0.7	0.9	0.7	0.9	0.5	0.5	0.3	0.6	0.6	0.5	0.1	0.6	Binding of Control Serum Blood-Bank to Looped peptides [2]: 1.0; Binding of Control serum Blood-bank to linear peptides [2]: 0.8; Binding of Control serum LUMC to linear peptides [2]: 0.8; Binding of Control serum LUMC to looped peptides [2]: 0.8; Binding of antibody 03-018 to linear peptides of the N protein of SARS-CoV Urbani [4]: 0.1; Binding of antibody 03-018 to looped/cyclic peptides of the N protein of SARS-CoV Urbani [4]: 0.3
HGAIKLDDKDPQFKD	0.2	0.2	0.1	0.1	0.2	0.2	0.1	0.1	0.8	0.5	0.7	0.3	0.6	0.3	0.4	0.3	0.6	0.3	0.1	0.3	Control Serum Blood-Bank Looped peptides [2]: 0.4; Control serum Blood-bank linear peptides [2]: 0.6; Control serum LUMC linear peptides [2]: 0.6; Control serum LUMC looped peptides [2]: 0.4; Binding of antibody 03-018 to linear peptides of the N protein of SARS-CoV Urbani [4]: 0.1; Binding of antibody 03-018 to looped/cyclic peptides of the N protein of SARS-CoV Urbani [4]: 0.2
